# Data published in paper PMC12040169 (PLOS Biology, 2025).
# Experiment: in vitro
# Settings: human, hela cells, % viability
row,Compound,"viability at 28.5 h, 10 µM"
1,CC(C)Nc1nc(NC(C)C)nc(Oc2ccc(C=O)cc2)n1 [CBK265043],111%
2,O=C(NC(=S)Nc1ccccc1C(=O)O)c1ccc(Cl)cc1 [CBK265044],96.2%
3,O=C(CN1CCOCC1)Nc1ccc(NC(=O)CN2CCOCC2)cc1 [CBK265045],95.9%
4,CCN(CC)CCNc1cc(C)nc2c1C(=O)C(=O)C=C2N1CCCCC1 [CBK265049],89.5%
5,CC1CCc2c(sc3ncnc(SC(C)C(=O)OC4CCCCC4)c23)C1 (stereo not shown) [CBK265050],104%
6,O=C(O)c1cccc(NC(=S)NC(=O)C(c2ccccc2)c2ccccc2)c1 [CBK265053],107%
7,NCCNCCCCOc1ccc(Cl)c(Cl)c1 [CBK265059],109%
8,O=C(CN1CCCC1)Nc1sc2c(c1C(=O)Nc1ccc(Br)cc1)CCC2 [CBK265060],94.8%
9,COc1ccc(NC(=O)c2c(NC(=O)CN3CCCC(C)C3)sc3c2CCC3)cc1 (stereo not shown) [CBK265061],93.3%
10,C=CCOc1ccc(-c2nn(-c3ccccc3)cc2/C=C2/SC(=S)N(CC(=O)O)C2=O)c(C)c1 [CBK265062],95.8%
11,COc1cccc(C(=O)NC(=S)Nc2ccc(C(=O)O)c(Cl)c2)c1 [CBK265065],103%
12,Cc1cc(Cl)c(OCCNCCO)c(Br)c1 [CBK265066G],122%
13,Cc1cccc(OCC(=O)NC(=S)Nc2cccc(C(=O)O)c2C)c1 [CBK265067],96.3%
14,Cc1ccc(C(=O)NC(=S)Nc2ccc(C(=O)O)c(Cl)c2)cc1Cl [CBK265068],95%
15,COc1cc(/C=C2\N=C(c3cc(Cl)ccc3OC)OC2=O)ccc1OC(=O)c1ccccc1 [CBK265069],104%
16,Cc1c(NC(=S)NC(=O)COc2ccc(Cl)cc2)cccc1C(=O)O [CBK265070],103%
17,Cc1cc(Br)c2c(c1)C(O)(N1CCCCC1C)C(=O)N2 (stereo not shown) [CBK265071],97.9%
18,O=C(CN1CCOCC1)Nc1sc2c(c1C(=O)Nc1ccc(Br)cc1)CCC2 [CBK265073],111%
19,COc1ccc(C(=O)O)cc1NC(=S)NC(=O)c1ccc(-c2cc(Cl)ccc2Cl)o1 [CBK265074],104%

row,Compound,"viability at 28.5 h, 10 µM"
1,CN1CCN(CCCOc2ccc(OCc3ccccc3)cc2)CC1 [CBK265077],98.2%
2,Cc1cc(Cl)c(OCCNCCN)c(Br)c1 [CBK265079],91.5%
3,CCCSc1nnc(-c2ccccc2NC(=O)CC)c(O)n1 [CBK265081],92.8%
4,Cc1cc(OCC(=O)NCCCN2CCOCC2)cc(C)c1Br [CBK265082],99.9%
5,Cc1cccc(C(C)(C)C)c1OCCn1ccnc1 [CBK265084],109%
6,COc1cccc(OC)c1OCCN1CCNCC1 [CBK265089G],90.7%
7,Nn1c(SCC(=O)Nc2ccc3c(c2)oc2ccccc23)nnc1-c1ccc(Cl)cc1Cl [CBK265090],91.7%
8,Cc1cccc(C(C)(C)C)c1OCCCCNCCN [CBK265092G],110%
9,Cc1cc(OCC(=O)Nc2ccccc2CO)cc(C)c1Br [CBK265094],88.2%
10,Cc1ccc(OCCCCNCCN)c(Br)c1 [CBK265099G],85.1%
11,Cc1ccccc1N1C(=O)/C(=C/c2cn(Cc3ccccc3[N+](=O)[O-])c3ccccc23)SC1=S [CBK265101],101%
12,N/C(=N\OC(=O)c1cc(-c2ccccc2)nc2ccccc12)c1cccnc1 [CBK265106],101%
13,COc1ccc(-c2nn(-c3ccccc3)cc2/C=C2/SC(=S)N(Cc3ccccc3)C2=O)c(C)c1 [CBK265107],93.7%
14,COc1cc(NC(=O)CN2C(=O)c3ccc([N+](=O)[O-])cc3C2=O)c(C(=O)O)cc1OC [CBK265109],97.7%
15,CCCC(=O)Nc1ccc(C(=O)Nc2ccccc2C(=O)O)cc1 [CBK265111],121%
16,O=C(CN1C(=O)C2C3C=CC(C3)C2C1=O)OCC(=O)c1ccccc1 (stereo not shown) [CBK265112],100%
17,O=C(CCN1C(=O)C2C3CCC(C3)C2C1=O)OCC(=O)c1ccc(-c2ccccc2)cc1 (stereo not shown) [CBK265113],95.1%
18,CCOC(=O)C(C)N1C(=O)S/C(=C/c2ccc(Oc3ccc([N+](=O)[O-])cn3)cc2)C1=O (stereo not shown) [CBK265114],93.9%
19,O=C(CN1C(=O)C2C3C=CC(C3)C2C1=O)NCc1ccco1 (stereo not shown) [CBK265116],96.4%

row,Compound,"viability at 28.5 h, 10 µM"
1,COc1ccc(NC(=O)Nc2ccc3nc(C)c(C)nc3c2)cc1 [CBK265120],97.4%
2,O=[N+]([O-])c1cc(CN2CCCCC2)c2cccnc2c1O [CBK265121],86.3%
3,CCn1cc(C(=O)O)c(=O)c2cc(F)c(N3CCN(S(=O)(=O)c4ccc(C)cc4)CC3)cc21 [CBK265122],95.1%
4,O=C(O)c1ccc(COc2ccc3ccccc3c2/C=C2/NC(=O)N(c3ccccc3)C2=O)cc1 [CBK265124],101%
5,COC(=O)C1=C(C)N(c2cccc(C(F)(F)F)c2)C(=O)/C1=C\c1ccc(C(=O)O)cc1 [CBK265129],92.8%
6,O=C(CSc1nnc(COc2ccccc2)n1-c1ccccc1)c1cccs1 [CBK265133],99.3%
7,Cc1n[nH]c(O)c1C(c1ccc(OC(=O)c2c(F)cccc2F)cc1)c1c(C)n[nH]c1O [CBK265136],101%
8,COc1cc([N+](=O)[O-])ccc1NC(=O)CCN1C(=O)C2C3CCC(C3)C2C1=O (stereo not shown) [CBK265141],99.3%
9,COc1cccc(C(=O)COC(=O)c2cc(-c3ccccc3)nc3ccc(Br)cc23)c1 [CBK265143],94.4%
10,COCCNC(=O)Nc1ccc2nc(-c3ccccn3)c(-c3ccccn3)nc2c1 [CBK265151],89.9%
11,COc1cc2c(cc1NC(=O)CSc1nc3ccccc3[nH]1)oc1ccccc12 [CBK265153],100%
12,COc1cc2c(cc1NC(=O)CSc1nc3ccccc3o1)oc1ccccc12 [CBK265154],105%
13,CN(C)S(=O)(=O)N1CCN(c2ccc([N+](=O)[O-])c(NC3CC3)c2)CC1 [CBK265158],87%
14,COc1ccc(Cl)cc1NC(=O)CN(C1CCCCC1)S(=O)(=O)c1ccccc1 [CBK265159],108%
15,CCOc1cc(/C=C2/NC(=O)N(c3ccccc3)C2=O)cc(Cl)c1OCc1cccc(C(=O)O)c1 [CBK265160],92%
16,O=C(NCCO)/C(=C\c1ccccc1)NC(=O)c1ccc(I)cc1 [CBK265162],89.2%
17,C=CCOc1ccc(C(=O)C2=C(O)C(=O)N(Cc3cccnc3)C2c2cccnc2)cc1 (stereo not shown) [CBK265167],98%
18,O=C(COC(=O)c1ccncc1)c1ccc(OC(=O)c2ccccc2)cc1 [CBK265169],87.3%
19,C/C(=C1/SC(=S)N(CCC(=O)O)C1=O)c1ccc(O)cc1 [CBK265171],102%

# Same assay, conditions: human, hela cells, % viability, bulk resorufin, single well
row,Compound,"viability at 28.5 h, 10 µM"
1,O=C1NC(=S)N(c2ccccc2F)C(=O)/C1=C/NCc1ccco1 [CBK265126],86.6%
2,CCOC(=O)C1CCN(/C=C2/C(=O)NC(=S)N(c3ccccc3F)C2=O)CC1 [CBK265142],102%
3,O=C1NC(=O)C(=Cc2cccc(OC(F)(F)C(F)F)c2)C(=O)N1 [CBK265150],108%
4,O=C(Cn1cc(/C=C2\C(=O)NC(=S)N(c3cccc(F)c3)C2=O)c2ccccc21)Nc1ccccc1 [CBK265152],106%
